The supplement of paper PMC10307832

Columns and labels:
Assay in all cases: relative viability (nuclei count vs DMSO), 5 days (fraction); higher = more cells survive
[1] = compound: CC1=C(C(=O)N2C=CSC2=N1)CCN3CCC(=C(C4=CC=CC=C4)C5=CC=C(C=C5)F)CC3
How it was run: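 Viability here means nuclei in treated wells divided by nuclei in vehicle wells, reported as the median across plates. Only plates with control CV below 25% and at least one doubling passed. Lung cancer cell lines in 1536-well plates were exposed to five √10-spaced library-drug doses for 5 days and counted from 4× Hoechst images in MetaXpress.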

[2] = compound: CC1=C(C(=O)N2C=CSC2=N1)CCN3CCC(=C(C4=CC=CC=C4)C5=CC=C(C=C5)F)CC3 + CC(=O)Nc1cccc(-n2c(=O)n(C3CC3)c(=O)c3c(Nc4ccc(I)cc4F)n(C)c(=O)c(C)c32)c1 [Trametinib] (partner 0.02 µM)
How it was run: (§1)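 Lung cancer cell lines, seeded in 1536-well plates, were treated the following day by pin tool with a single drug or with five library-drug doses (not always all listed) in √10 steps on top of a fixed anchor-drug dose. Cells were fixed and nuclei stained in one step after 5 days, and nuclei were counted. Relative viability is the nuclei count for treated wells divided by that for vehicle wells, reported as medians of duplicate plates.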

[3] = compound: CC1=C(C(=O)N2C=CSC2=N1)CCN3CCC(=C(C4=CC=CC=C4)C5=CC=C(C=C5)F)CC3 + COc1cccc2cc(-c3nc([C@H]4CC[C@H](C(=O)O)CC4)n4ncnc(N)c34)[nH]c12 [OSI-027] (partner 0.5 µM)
How it was run: as §1

[4] = compound: CC1=C(C(=O)N2C=CSC2=N1)CCN3CCC(=C(C4=CC=CC=C4)C5=CC=C(C=C5)F)CC3 + N=C(N)NC(=N)NCCc1ccccc1 [Phenformin] (partner 250 µM)
How it was run: as §1

Row | Cell Line | relative viability ([1]; 0.08 µM) | relative viability ([1]; 0.253 µM) | relative viability ([1]; 0.8 µM) | relative viability ([1]; 2.53 µM) | relative viability ([1]; 8 µM) | relative viability ([2]; first compound 0.08 µM) | relative viability ([2]; first compound 0.253 µM) | relative viability ([2]; first compound 0.8 µM) | relative viability ([2]; first compound 2.53 µM) | relative viability ([2]; first compound 8 µM) | relative viability ([3]; first compound 0.08 µM) | relative viability ([3]; first compound 0.253 µM) | relative viability ([3]; first compound 0.8 µM) | relative viability ([3]; first compound 2.53 µM) | relative viability ([3]; first compound 8 µM) | relative viability ([4]; first compound 0.08 µM) | relative viability ([4]; first compound 0.253 µM) | relative viability ([4]; first compound 0.8 µM) | relative viability ([4]; first compound 2.53 µM) | relative viability ([4]; first compound 8 µM)
1 | 201T | 1.04 | 1.04 | 0.986 | 1.04 | 1.01 | 0.7 | 0.749 | 0.709 | 0.75 | 0.722 | 0.579 | 0.663 | 0.81 | 0.842 | 0.695 | 0.504 | 0.463 | 0.433 | 0.477 | 0.386
2 | A549 | 0.841 | 1.05 | 1.01 | 1.06 | 0.433 | – | – | – | – | – | – | – | – | – | – | 0.101 | 0.203 | 0.206 | 0.112 | 0.151
3 | A-427 | 0.983 | 1.08 | 0.945 | 1.04 | 0.939 | 0.762 | 0.686 | 0.712 | 0.818 | 0.681 | 0.421 | 0.364 | 0.421 | 0.49 | 0.432 | 0.291 | 0.287 | 0.283 | 0.301 | 0.266
4 | ABC-1 | 1.04 | 0.858 | 0.871 | 0.888 | 0.592 | – | – | – | – | – | 0.547 | 0.394 | 0.434 | 0.372 | 0.266 | 0.267 | 0.223 | 0.212 | 0.248 | 0.197
5 | BEN | 0.886 | 1 | 1 | 1.07 | 0.856 | 0.798 | 1.13 | 1.06 | 1.16 | 0.944 | 0.294 | 0.311 | 0.283 | 0.318 | 0.278 | 0.255 | 0.281 | 0.247 | 0.316 | 0.21
6 | CAL-12T | 1.02 | 1.08 | 0.953 | 1.02 | 0.723 | 0.262 | 0.281 | 0.267 | 0.338 | 0.3 | 0.826 | 0.718 | 0.603 | 0.586 | 0.428 | 0.55 | 0.593 | 0.544 | 0.605 | 0.346
7 | COR-L23 | 0.883 | 1.16 | 1.22 | 1.19 | 0.519 | 0.748 | 0.612 | 0.5 | 0.731 | 0.372 | 0.778 | 0.667 | 0.702 | 0.778 | 0.619 | 0.43 | 0.449 | 0.39 | 0.455 | 0.375
8 | COR-L 105 | 0.89 | 0.928 | 0.787 | 0.852 | 0.845 | 0.417 | 0.459 | 0.405 | 0.495 | 0.43 | 0.682 | 0.726 | 0.695 | 0.835 | 0.644 | 0.484 | 0.467 | 0.402 | 0.499 | 0.387
9 | ChaGo-K-1 | 0.86 | 1.1 | 1.06 | 1.09 | 0.623 | 0.821 | 0.926 | 0.961 | 0.963 | 0.673 | 0.595 | 0.636 | 0.533 | 0.584 | 0.489 | 0.561 | 0.462 | 0.53 | 0.539 | 0.431
10 | EKVX | 0.818 | 0.984 | 1.06 | 1.09 | 0.711 | 0.354 | 0.42 | 0.358 | 0.314 | 0.292 | 0.46 | 0.708 | 0.777 | 0.744 | 0.545 | 0.211 | 0.26 | 0.236 | 0.207 | 0.221
11 | EMC-BAC-2 | 1.01 | 0.798 | 0.908 | 1.12 | 0.796 | 1 | – | 0.931 | 0.926 | 0.858 | 0.35 | 0.353 | 0.372 | 0.37 | 0.291 | 0.536 | 0.495 | 0.497 | 0.526 | 0.414
12 | EPLC-272H | 0.832 | 0.914 | 0.864 | 1.03 | 0.743 | 0.379 | 0.295 | 0.305 | 0.281 | 0.255 | 0.26 | 0.282 | 0.316 | 0.262 | 0.235 | 0.333 | 0.328 | 0.286 | 0.286 | 0.391
13 | H3255 | 0.802 | 1.01 | 1.04 | 1.01 | 0.832 | 0.611 | 0.577 | 0.66 | 0.613 | 0.417 | 0.474 | 0.572 | 0.65 | 0.594 | 0.512 | 0.341 | 0.34 | 0.352 | 0.37 | 0.38
14 | HARA | 1.07 | 1.5 | 1.06 | 0.961 | 0.745 | 0.982 | 0.567 | 0.746 | 0.368 | 0.551 | 0.379 | 0.577 | 0.534 | 0.454 | 0.275 | 0.525 | 0.513 | 0.54 | 0.544 | 0.269
